From patent US7998933B2, “Process for treating the skin comprising applying to the skin at least one composition comprising at least one N-aminoacylamide” (L'Oreal S.A., priority 2000, dated 2011)

Legend:
[1] = molecular target: T1, human leukocyte elastase (HLE) (Homo sapiens, UniProt P08246); test: in vitro anti-elastase activity, substrate Me-OSAAPV-p-NA, spectrophotometry; assay type: biochemical
T1 sequence (P08246 30-267): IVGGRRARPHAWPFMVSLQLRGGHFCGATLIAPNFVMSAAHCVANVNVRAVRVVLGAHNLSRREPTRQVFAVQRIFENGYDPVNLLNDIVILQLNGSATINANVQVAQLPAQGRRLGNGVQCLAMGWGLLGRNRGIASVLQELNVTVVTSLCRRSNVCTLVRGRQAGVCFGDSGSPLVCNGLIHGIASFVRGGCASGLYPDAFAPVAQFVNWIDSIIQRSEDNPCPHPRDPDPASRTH
Method: The in vitro anti-elastase activity of compounds according to the invention with respect to human leukocyte elastase (HLE) was determined. […]
The percentage inhibition of the control elastase activity is then determined by spectrophotometry.

[2] = tested on: surviving human skin irradiated with UVA (8 J/cm^2); test: activity on surviving human skin irradiated with UVA, morphometric analysis of elastic fibres and collagen; assay type: cell-based; conditions: UVA 8 J/cm^2 once + 5 μl of 0.2% compound every two days, 7 days at 37° C.
Method: The activity of the compound of Example 2 on surviving human skin irradiated with UVA (8 J/cm^2) was evaluated.
(§1) Fragments of normal human skin obtained from four different donors are placed in inserts positioned in culture wells. Culture medium supplemented with antibiotics is placed in the bottom of the wells. A passage is carried out by slow diffusion between the two compartments by means of a porous membrane (pore size: 12 μm).
(§2) The culture medium is freshened every three days.
5 μl of the test compound, predissolved at a concentration of 0.2% in ethanol, is added to the skin fragments every two days.
The skins are kept alive for 7 days at 37° C.
The skins are irradiated once at 8 J/cm^2 (Vilbert-Lourmat RMX-3W lamp).
(§3) The elastic fibres are stained blue with (+)-catechin and morphometrically quantified by computer-assisted image analysis. The percentage of average dermal surface area occupied by the elastic fibres is thus evaluated.

[3] = tested on: surviving human skin treated with human leukocyte elastase (HLE); test: ex vivo activity on human skin fragments kept alive in culture for 10 days with HLE, morphometric quantification of elastic fibres; assay type: cell-based; conditions: three donors; 0.5 μg/ml HLE + 5 μl of 0.2% compound in ethanol every two days, 10 days at 37° C.; control 7.4%, HLE alone 5.1%
Method: (§4) The ex vivo activity of the compound of Example 2 was evaluated on surviving human skin treated with human leukocyte elastase (HLE).
as §1, with “three” for “four”
as §2
0.5 μg of HLE per ml of culture medium is optionally added to the skin fragments.
5 μl of the test compound, predissolved at a concentration of 0.2% by weight in ethanol, is also added every two days.
The skins are kept alive for 10 days at 37° C.
as §3

[4] = tested on: surviving human skin treated with human leukocyte elastase (HLE); test: ex vivo activity on fresh sections of human skin treated with HLE for 2 hours, morphometric quantification of elastic fibres; assay type: cell-based; conditions: 10 μg/ml HLE + 0.1% compound, 2 hours at 20° C.
Method: as §4
Fresh sections of human skin, obtained from 2 different donors, are treated for 2 hours at 20° C. with 20 μl of buffer solution (pH 7.4) optionally comprising 10 μg/ml of HLE and optionally 0.1% of the test compound, optionally predissolved in ethanol.
as §3

[5] = compound concentration 0.1%, HLE 40 milliunits per ml, 37° C., 60 minutes

## CC(=O)N(c1cccc(C(F)(F)F)c1)C(C(=O)NCC(=O)O)C(C)C (centres unmarked) [Example 2, {2-[acetyl (3-trifluoromethylphenyl)amino]-3-methylbutyrylamino}acetic acid]
[1]
  inhibition of the elastase activity (in words): strong inhibition of the elastase activity, even in a small amount
[1]; [5]
  % inhibition of the control elastase activity: 67%
[1]; concentration of compound A 0.01%
  % inhibition of the control elastase activity: 53%
[1]; concentration of compound A 0.05%
  % inhibition of the control elastase activity: 50%
[1]; concentration of compound A 0.1% (concentration series)
  % inhibition of the control elastase activity: 68%
[1]; concentration of compound A 0.2%
  % inhibition of the control elastase activity: 68%
[2]; untreated 6.75%, UVA alone 3.9%
  Morphometric analysis of the elastic fibres (superficial dermis): 6.8%
[2]; untreated 87%, UVA alone 81%
  Morphometric analysis of the collagen (superficial dermis): 92%
[3]
  % of surface area occupied by the elastic fibres: 7.1%
[4]; Skin 1, control 12.7%, HLE alone 4.85%
  % of surface area occupied by the elastic fibres: 13.95%
[4]; Skin 2, control 15.25%, HLE alone 6.85%
  % of surface area occupied by the elastic fibres: 11.85%

## CC(=O)N(Cc1ccccc1)C(C(=O)NCC(=O)O)C(C)C (centres unmarked) [Compound C, [2-(acetylbenzylamino)-3-methylbutyrylamino]acetic acid]
[1]; [5]
  % inhibition of the control elastase activity: 20%

## CCOC(=O)CNC(=O)C(C(C)C)N(Cc1ccccc1)C(=O)CP(=O)(OCC)OCC (centres unmarked) [Compound B, ethyl [2-{benzyl((diethoxyphosphoryl)acetyl]amino}-3-methylbutyrylamino)acetate]
[1]; [5]
  % inhibition of the control elastase activity: 17%

## CCOC(=O)CNC(=O)C(C(C)C)N(Cc1ccccc1)C(C)=O (centres unmarked) [Compound D, ethyl [2-(acetylbenzylamino)-3-methylbutyrylamino]acetate]
[1]; [5]
  % inhibition of the control elastase activity: 13%
